Structures are written as SMILES. Like-named read-outs stand apart in the source and are kept apart here.

The results in this text go back to EP0786252A1 (priority 1994, dated 1996).

Data set [1] has as its system lymphocytic leukemia P388 cells. Briefly: Antiproliferative activity against drug-resistant tumor cells (cell count after 72 hours). In kind it is cell-based. As to the method:
(§1) Compound (I) was tested for its antiproliferative activity against lymphocytic leukemia P388 cells, adriamycin-resistant P388 cells (P388/ADM), cisplatin-resistant P388 cells (P388/CDDP), cyclophosphamide-resistant P388 cells (P388/CPM), and mitomycin C-resistant P388 cells (P388/MMC), in the manner described below.
P388 cells were suspended in an RPMI-1640 medium containing 10 % fetal calf serum, 100 units/ml penicillin, 100 µg/ml streptomycin and 20 µM 2-mercaptoethanol at a concentration of 3 x 10^4 cells/ml, and 0.1 ml of the cell suspension was put into each well of a 96-well microplate. The cells were incubated in a carbon dioxide incubator (5 % carbon dioxide) overnight at 37°C, and 0.05 ml/well of a compound (I) that had been suitably diluted with the medium was added to each well.
(§2) The cells were further incubated in the carbon dioxide incubator for 72 hours, then the culture supernatant was removed, and the number of the cells was counted using a cell counter. The number of non-treated cells was compared with that of cells treated with the compound (I), from which was obtained the concentration of the chemical that inhibited 50 % of the cell growth. This is referred to as IC50.

For data set [2], the system named is adriamycin-resistant P388 cells (P388/ADM). The data set is described as above. In kind it is cell-based. The procedure: as §1
(§3) P388 cells were suspended in an RPMI-1640 medium containing 10 % fetal calf serum, 100 units/ml penicillin, 100 µg/ml streptomycin and 20 µM 2-mercaptoethanol at a concentration of 3 x 10^4 cells/ml, and 0.1 ml of the cell suspension was put into each well of a 96-well microplate.
as §2
(§4) For the others, P388/ADM cells, P388/CDDP cells, P388/CPM cells and P388/MMC cells, IC50 of the compound (I) was obtained in the same manner as above.

Data set [3] deals with cyclophosphamide-resistant P388 cells (P388/CPM). The description is as above. The format is cell-based. As to the method: as §1, §3, §2, §4
Data set [4] has as its system mitomycin C-resistant P388 cells (P388/MMC). Described as above. The format is cell-based. As to the method:
as §1, §3, §2, §4

The subject of data set [5] is cisplatin-resistant P388 cells (P388/CDDP). Described as above. In kind it is cell-based. As to the method: as §1, §3, §2, §4
Data set [6] has as its system ddY mice. Briefly: Acute toxicity, intravenous administration. As to conditions: male ddY mice; for Death Rate: 30 days. In kind it is in vivo. The source says:
(§5) Compound (I) was intravenously administered to ddY mice (male; body weight, 19 to 21 g). 30 days after the administration, LD50 and LD10 were obtained through probit analysis.

A short description of data set [7]: Acute toxicity, intravenous administration. In kind it is in vivo. As to conditions: mouse, in vivo, male ddY mice, 30 days after administration, probit analysis.
Excerpt: as §5

The term IC50 denotes the concentration needed to halve the response being measured. In the case of `COc1cccc2c1C(=O)c1c(O)c3c(c(O)c1C2=O)C[C@@](O)(C(=O)CO)C[C@@H]3O[C@H]1C[C@H](N)[C@H](O)[C@H](C)O1` [ADM, Adriamycin], the IC50 in data set [1] (Mus musculus, P388 cells, 72 hours incubation, read-out: IC50) was found to be 6.62 nM; in data set [2] (Mus musculus, P388/ADM cells, 72 hours incubation, read-out: IC50) it was 571 nM; in data set [3] (Mus musculus, P388/CPM cells, 72 hours incubation, read-out: IC50), 5.79 nM; in data set [4] (Mus musculus, P388/MMC cells, 72 hours incubation, read-out: IC50), 14.7 nM; in data set [5] (Mus musculus, P388/CDDP cells, 72 hours incubation, read-out: IC50), 18.1 nM.

In general, LD50 refers to the dose at which mortality reaches 50%. As to `COC(=O)c1c(C)[nH]c2c(OC(=O)N3CCN(C)CC3)cc3c(c12)C(CBr)CN3C(=O)c1cc2cc(OC)c(OC)c(OC)c2[nH]1` (stereo not shown) [Compound 1], the “Mean Survival Time” value in data set [6] (Dose 0.48 mg/kg) is recorded as “No died”; in data set [6] (Dose 0.57 mg/kg), 11.6 +/- 3.4 days +/- SD; in data set [6] (Dose 0.69 mg/kg), 11.6 +/- 1.5 days +/- SD; in data set [6] (Dose 0.82 mg/kg), 8.3 +/- 1.8 days +/- SD; in data set [6] (Dose 0.99 mg/kg), 6.8 +/- 1.6 days +/- SD; in data set [6] (Dose 1.2 mg/kg), 5.6 +/- 1.8 days +/- SD. In addition, the “Death Rate” value in data set [6] (Dose 0.48 mg/kg) is on record as 0/20; in data set [6] (Dose 0.57 mg/kg), 2/20; in data set [6] (Dose 0.69 mg/kg), 3/20; in data set [6] (Dose 0.82 mg/kg), 10/20; in data set [6] (Dose 0.99 mg/kg) it was 17/20; in data set [6] (Dose 1.2 mg/kg) it was 20/20. Further, the LD10 in data set [6] (30 days after administration, probit analysis) came out at 0.63 mg/kg. Besides, in data set [7], the LD50 at 720 h was 0.81 mg/kg. The IC50 in data set [1] (Mus musculus, P388, 72 h) is 8.17 nM; in data set [2] (Mus musculus, P388/ADM, 72 h), 15.6 nM; in data set [3] (Mus musculus, P388, 72 h), 6.34 nM; in data set [4] (Mus musculus, P388, 72 h), 15.3 nM; in data set [5] (Mus musculus, P388, 72 h), 19.8 nM.

On to `[NH2][Pt]([NH2])([Cl])[Cl]` [CDDP, Cisplatin], for which the IC50 came out at 75.4 nM in data set [1] (P388 cells, 72 hours incubation, read-out: IC50); 88.3 nM in data set [2] (P388/ADM cells, 72 hours incubation, read-out: IC50); 504 nM in data set [3] (P388/CPM cells, 72 hours incubation, read-out: IC50); 1090 nM in data set [4] (P388/MMC cells, 72 hours incubation, read-out: IC50); 4080 nM in data set [5] (P388/CDDP cells, 72 hours incubation, read-out: IC50).

For `CO[C@@]12[C@H](COC(N)=O)C3=C(C(=O)C(C)=C(N)C3=O)N1C[C@@H]1N[C@@H]12` [MMC, Mitomycin C], the IC50 in data set [1] (Mus musculus, P388, 72 h) is 40.2 nM; in data set [2] (Mus musculus, P388/ADM, 72 h), 56.9 nM; in data set [3] (Mus musculus, P388, 72 h), 94.4 nM; in data set [4] (Mus musculus, P388, 72 h) it was greater than 300 nM; in data set [5] (Mus musculus, P388, 72 h) it was 186 nM.
